Test results published in patent US9127021B2, “Hepatitis C virus inhibitors” (priority 2010, dated 2015).
Read-outs that look alike come from different tables or passages of the source.

Legend:
[1] = tested on: HCV 1a genotype replicon; test: HCV genotype 1a replicon assay (qRT-PCR or luciferase); assay type: cell-based; settings: Hepatitis C virus
[2] = tested on: HCV 1b genotype replicon; test: HCV genotype 1b replicon assay (qRT-PCR or luciferase); assay type: cell-based; settings: Hepatitis C virus
Text: HCV replicon cell lines (kindly provided by R. Bartenschlager) isolated from colonies as described by Lohman et al. (Lohman et al. (1999) Science 285: 110-113, expressly incorporated by reference in its entirety) and used for all experiments. The HCV replicon has the nucleic acid sequence set forth in EMBL Accession No.: AJ242651, the coding sequence of which is from nucleotides 1801 to 8406.
The coding sequence of the published HCV replicon was synthesized and subsequently assembled in a modified plasmid pBR322 (Promega, Madison, Wis.) using standard molecular biology techniques. […]
EC50 values of single agent compounds were determined by HCV RNA detection using quantitative RT-PCR, according to the manufacturer's instructions, with a TAQMAN® One-Step RT-PCR Master Mix Reagents Kit (Cat#AB 4309169, Applied Biosystems) on an ABI Model 7500 thermocycler. EC50 values of combinations are similarly determined by HCV RNA detection using quantitative RT-PCR. The TAQMAN primers to use for detecting and quantifying HCV RNA obtained from Integrated DNA Technologies. HCV RNA is normalized to GAPDH RNA levels in drug-treated cells, which is detected and quantified using the Human GAPDH Endogenous Control Mix (Applied Biosystems, AB 4310884E). […] Chemical agent cytotoxicity is evaluated using an MTS assay according to the manufacturer's directions (Promega). […]

SMILES | EC50 ([1]; read-out: 1a EC50) [nM] | EC50 ([1]; read-out: Range (EC50 range against HCV 1a)) [nM] | EC50 ([2]; read-out: 1b EC50) [nM] | EC50 ([2]; read-out: Range (EC50 range against HCV 1b)) [nM]
COC(=O)N[C@H](C(=O)N1CCC[C@H]1c1nc(-c2ccc(-c3ccc4c(c3)COCCCCO[C@H](C)[C@H](NC(=O)OC)C(=O)N3CCC[C@H]3c3nc-4c[nH]3)cc2)c[nH]1)C(C)C [Compound 346] | 2.4 | > 1 | – | –
COC(=O)N[C@H]1CCCCOCc2cc(-c3ccc4cc(-c5c[nH]c([C@@H]6CCCN6C(=O)[C@@H](NC(=O)OC)C(C)C)n5)ccc4c3)ccc2NC(=O)[C@@H]2CCCN2C1=O [Compound 350] | – | – | 0.05 | < 0.1
